PMC12775434, “Ultra-large virtual screening unveils potent agonists of the neuromodulatory orphan receptor GPR139” (Nature Communications, 2025)
Values joined by “and” are separate entries in the source; they are usually repeats but may differ in a detail not shown here. Identical values can stand only once. Like-named read-outs stand apart in the source and are kept apart here.

Assays:
Format in all cases: cell-based
[1] = target: T1, human muscarinic acetylcholine M1 receptor (M1R) (Homo sapiens, UniProt P11229); assay: Ca2+ mobilization counter-screen in M1R-CHOk1 cells; details: individual replicates (Supplementary Figure 5)
T1 sequence (P11229 1-460): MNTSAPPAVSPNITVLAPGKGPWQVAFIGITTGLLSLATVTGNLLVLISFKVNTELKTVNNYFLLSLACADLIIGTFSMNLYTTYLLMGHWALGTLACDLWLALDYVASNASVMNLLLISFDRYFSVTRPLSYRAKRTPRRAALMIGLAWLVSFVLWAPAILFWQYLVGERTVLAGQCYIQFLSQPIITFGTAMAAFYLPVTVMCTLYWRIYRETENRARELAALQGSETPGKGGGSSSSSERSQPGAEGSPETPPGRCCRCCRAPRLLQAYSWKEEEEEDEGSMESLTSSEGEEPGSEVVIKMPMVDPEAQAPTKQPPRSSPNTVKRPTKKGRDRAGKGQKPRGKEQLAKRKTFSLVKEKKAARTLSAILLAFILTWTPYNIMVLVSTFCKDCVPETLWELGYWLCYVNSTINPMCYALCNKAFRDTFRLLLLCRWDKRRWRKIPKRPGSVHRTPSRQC
Procedure: Primary screening and pharmacological characterization of compounds were performed using a CHO-K1 cell line that stably expresses human GPR139 (GPR139-CHOk1). The GPR139-CHOk1 cell line was kindly provided by H. Lundbeck A/S, Denmark[24]. GPR139-CHOk1 cells were grown in Ham’s F-12 Kaighn’s Modification Medium (ThermoFisher #21127030) supplemented with 10% dialyzed fetal bovine serum (US origin, ThermoFisher #26400044), 100 units/mL Penicillin-Streptomycin (ThermoFisher #15140122), and 1 mg/mL Geneticin (ThermoFisher #11811031). […] M1R-CHOk1 cells were purchased from The Missouri S&T cDNA Resource Center (#CEM100TN00). M1R-CHOk1 cells were grown in Ham’s F12 Medium (ThermoFisher #21765029) supplemented with 10% fetal bovine serum (Brazilian origin, ThermoFisher #10270106), 100 units/mL Penicillin-Streptomycin, and 0.25 mg/mL Geneticin. HEK293A cells transiently transfected with GPR139 were used for additional pharmacological assessment of signaling pathways activated by GPR139. HEK239A cells were generously provided by Dr. Asuka Inoue, Tohoku University, Japan. HEK293A cells were grown in Dulbecco’s Modified Eagle Medium (ThermoFisher #31966047) supplemented with 10% dialyzed fetal bovine serum and 100 units/mL Penicillin-Streptomycin. Cell lines were maintained at 37 °C in humidified incubator equilibrated with 5% CO2.
30,000 GPR139- or M1R-CHOk1 cells/well were seeded in black clear bottom tissue culture treated 96-well plates (Greiner #655090) and grown for 20–24 h. Cells were washed with HEPES buffer (Hank’s Balanced Salt Solution (HBBS) supplemented with 20 mM HEPES, 1 mM MgCl2, and 1 mM CaCl2; pH 7.4). Cells were loaded with 50 µL of 2 µM Fluo-4 AM dye (ThermoFisher #F14202) in HEPES buffer supplemented with 2.5 mM probenecid and 0.01% Pluronic F-68 (ThermoFisher #24040032) for 1 h at 37 °C. Cells were washed with HEPES buffer. 50 µL HEPES buffer supplemented with 2.5 mM probenecid was added, and the cells were incubated for 10 min at 37 °C before measurement. 50 µL test compounds diluted in HEPES buffer from DMSO stocks (final DMSO concentration of maximally 0.3%) were added automatically after baseline measurements. The intracellular calcium mobilization was measured on a FlexStation 3 Multimode Microplate Reader (Molecular Devices) at 37 °C with filters for excitation of 485 nm and emission of 525 nm.

GPR139 [2] = target: T2, GPR139 (Homo sapiens, UniProt Q6DWJ6); assay: Ca2+ mobilization assay, agonist mode, stable GPR139-CHOk1 cell line; details: for Emax: normalized to Lundbeck Cmp 1a, read-out: Emax (%) Ca2+
T2 sequence (Q6DWJ6 1-353): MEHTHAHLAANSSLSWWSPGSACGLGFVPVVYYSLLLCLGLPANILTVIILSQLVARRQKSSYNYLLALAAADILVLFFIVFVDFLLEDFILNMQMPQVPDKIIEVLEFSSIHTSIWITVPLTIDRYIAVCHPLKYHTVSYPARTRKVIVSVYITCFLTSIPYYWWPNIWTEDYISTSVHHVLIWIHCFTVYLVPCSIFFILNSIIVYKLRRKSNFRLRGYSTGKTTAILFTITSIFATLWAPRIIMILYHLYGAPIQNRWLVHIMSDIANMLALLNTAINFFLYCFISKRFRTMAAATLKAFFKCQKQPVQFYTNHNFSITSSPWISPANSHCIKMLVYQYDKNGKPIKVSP
Method in brief: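 Agonist activity of compounds is assessed in stably transfected CHO-K1 cells using the calcium dye Fluo-4 at 37 °C in HEPES-buffered HBSS (pH 7.4). Efficacy is expressed relative to the reference agonist Lundbeck Cmp 1a, set as 100%.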

GPR139 [3] = target: T2, GPR139; assay: Ca2+ mobilization assay, antagonist mode (EC80 800 nM Lundbeck Cmp 1a after 20 min preincubation), GPR139-CHOk1; details: individual replicates (Supplementary Figure 4)
Method in brief: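 Antagonist mode: 800 nM (EC80) reference agonist Lundbeck Cmp 1a added following 20 min pre-incubation with 10 µM compound. GPR139-CHOk1 cells, Fluo-4 dye, probenecid-containing HEPES buffer pH 7.4; intracellular Ca2+ measured at 37 °C (ex 485, em 525 nm).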

[4] = Agonist mode, individual replicates (Supplementary Figure 4)
[5] = Supplementary Table 2, mean ± SEM, read-out: pEC50 Ca2+ (converted)
[6] = Supplementary Table 2, mean ± SEM
[7] = log [Compound] M = -4.5, individual replicate columns
[8] = log [Compound] M = -5.0, individual replicate columns
[9] = log [Compound] M = -5.5, individual replicate columns
[10] = log [Compound] M = -6.0, individual replicate columns
[11] = log [Compound] M = -6.5, individual replicate columns
[12] = log [Compound] M = -7.0, individual replicate columns
[13] = log [Compound] M = -7.5, individual replicate columns
[14] = log [Compound] M = -8.0, individual replicate columns
[15] = log [Compound] M = -8.5, individual replicate columns
[16] = log [Compound] M = -9.0, individual replicate columns

fold decrease in potency relative to a similar phenyl substituted compound (1.3) (GPR139 [2]; Ca2+ mobilization EC50)	EC50 (GPR139 [2]; [5]) [nM]	Emax (GPR139 [2]; [6]) [%]	EC50 (GPR139 [2]; GPR139-CHOk1, read-out: EC50, Ca2+ mobilization) [nM]	fold decrease in potency relative to parent compound 1 (GPR139 [2]; Ca2+ mobilization EC50)	SMILES	Ca2+ signal (% of Carbachol) [1]	Ca2+ signal (% of Cmp 1a) (GPR139 [2]; [4])	Ca2+ signal (% of Cmp 1a) (GPR139 [2]; [7])	Ca2+ signal (% of Cmp 1a) (GPR139 [2]; [8])	Ca2+ signal (% of Cmp 1a) (GPR139 [2]; [9])	Ca2+ signal (% of Cmp 1a) (GPR139 [2]; [10])	Ca2+ signal (% of Cmp 1a) (GPR139 [2]; [11])	Ca2+ signal (% of Cmp 1a) (GPR139 [2]; [12])	Ca2+ signal (% of Cmp 1a) (GPR139 [2]; [13])	Ca2+ signal (% of Cmp 1a) (GPR139 [2]; [14])	Ca2+ signal (% of Cmp 1a) (GPR139 [2]; [15])	Ca2+ signal (% of Cmp 1a) (GPR139 [2]; [16])	Ca2+ signal (% of Cmp 1a) (GPR139 [3])
4- to 16 fold	398	95 ± 10			Cc1cccc(-c2nc(CC(=O)NC(C)c3ccccc3)no2)n1 (stereo not drawn) [Compound 1.13, CC(C1=CC=CC=C1)NC(CC2=NOC(C3=NC(C)=CC=C3)=N2)=O]	-3 % of Carbachol and 3 % of Carbachol and 7 % of Carbachol	87 % of Cmp 1a and 109 % of Cmp 1a and 94 % of Cmp 1a	113 % of Cmp 1a and 100 % of Cmp 1a and 105 % of Cmp 1a and 55 % of Cmp 1a	98 % of Cmp 1a and 101 % of Cmp 1a and 89 % of Cmp 1a and 78 % of Cmp 1a	85 % of Cmp 1a and 87 % of Cmp 1a and 83 % of Cmp 1a and 50 % of Cmp 1a	76 % of Cmp 1a and 73 % of Cmp 1a (2×) and 42 % of Cmp 1a	49 % of Cmp 1a (2×) and 40 % of Cmp 1a and 22 % of Cmp 1a	28 % of Cmp 1a and 33 % of Cmp 1a and 12 % of Cmp 1a (2×)	0 % of Cmp 1a and 14 % of Cmp 1a and -10 % of Cmp 1a and 13 % of Cmp 1a	8 % of Cmp 1a and 0.667 % of Cmp 1a and -4 % of Cmp 1a and -5 % of Cmp 1a	8 % of Cmp 1a and -4.67 % of Cmp 1a and -2.67 % of Cmp 1a and -3 % of Cmp 1a	2 % of Cmp 1a (2×) and -0.333 % of Cmp 1a and -15 % of Cmp 1a	7 % of Cmp 1a and 16 % of Cmp 1a and -17 % of Cmp 1a
		89 ± 15	400		Cc1ccc(-c2nc(CC(=O)NC(C)c3ccccc3)no2)cc1 (stereo not drawn) [Compound 1.14, CC(C1=CC=CC=C1)NC(CC2=NOC(C3=CC=C(C)C=C3)=N2)=O]	-9 % of Carbachol and -1 % of Carbachol and 10 % of Carbachol	71 % of Cmp 1a and 82 % of Cmp 1a and 46 % of Cmp 1a	97 % of Cmp 1a and 92 % of Cmp 1a and 89 % of Cmp 1a and 44 % of Cmp 1a	79 % of Cmp 1a and 86 % of Cmp 1a and 77 % of Cmp 1a and 48 % of Cmp 1a	61 % of Cmp 1a and 79 % of Cmp 1a and 69 % of Cmp 1a and 48 % of Cmp 1a	61 % of Cmp 1a and 52 % of Cmp 1a and 58 % of Cmp 1a and 40 % of Cmp 1a	42 % of Cmp 1a and 32 % of Cmp 1a and 38 % of Cmp 1a and 28 % of Cmp 1a	17 % of Cmp 1a and 12 % of Cmp 1a and 27 % of Cmp 1a and 22 % of Cmp 1a	5.33 % of Cmp 1a and 7 % of Cmp 1a and 30 % of Cmp 1a and -6 % of Cmp 1a	12 % of Cmp 1a and 2.67 % of Cmp 1a (2×) and 0.667 % of Cmp 1a	-1.67 % of Cmp 1a and -4 % of Cmp 1a and 1.67 % of Cmp 1a	8 % of Cmp 1a and 10 % of Cmp 1a and -3.67 % of Cmp 1a and 1 % of Cmp 1a	7 % of Cmp 1a and -0.667 % of Cmp 1a and 13 % of Cmp 1a
	501	105 ± 4		3- to 25 fold	Cc1nc(-c2nc(CC(=O)NC(C)c3ccccc3)no2)cs1 (stereo not drawn) [Compound 1.15, CC(C1=CC=CC=C1)NC(CC2=NOC(C3=CSC(C)=N3)=N2)=O]	3 % of Carbachol and 14 % of Carbachol	96 % of Cmp 1a and 108 % of Cmp 1a and 104 % of Cmp 1a	94 % of Cmp 1a and 99 % of Cmp 1a and 118 % of Cmp 1a and 102 % of Cmp 1a	101 % of Cmp 1a and 90 % of Cmp 1a and 112 % of Cmp 1a and 100 % of Cmp 1a	104 % of Cmp 1a and 84 % of Cmp 1a and 109 % of Cmp 1a and 112 % of Cmp 1a	70 % of Cmp 1a and 62 % of Cmp 1a and 81 % of Cmp 1a and 93 % of Cmp 1a	46 % of Cmp 1a (2×) and 31 % of Cmp 1a and 57 % of Cmp 1a	12 % of Cmp 1a and 11 % of Cmp 1a and 21 % of Cmp 1a and 17 % of Cmp 1a	8 % of Cmp 1a and -0.333 % of Cmp 1a and 13 % of Cmp 1a and 5.67 % of Cmp 1a	1.67 % of Cmp 1a and -3.67 % of Cmp 1a and 8 % of Cmp 1a and -2 % of Cmp 1a	1 % of Cmp 1a and 15 % of Cmp 1a and 11 % of Cmp 1a and 10 % of Cmp 1a	0.667 % of Cmp 1a and 7 % of Cmp 1a (2×) and 12 % of Cmp 1a	7 % of Cmp 1a and 2.33 % of Cmp 1a
4- to 16 fold	794	98 ± 3			Cc1ccnc(-c2nc(CC(=O)NC(C)c3ccccc3)no2)c1 (stereo not drawn) [Compound 1.17, CC(C1=CC=CC=C1)NC(CC2=NOC(C3=NC=CC(C)=C3)=N2)=O]	-5.46 % of Carbachol and 6 % of Carbachol and 7.55 % of Carbachol	56 % of Cmp 1a and 85 % of Cmp 1a and 81 % of Cmp 1a	97 % of Cmp 1a (2×) and 99 % of Cmp 1a and 98 % of Cmp 1a and 90 % of Cmp 1a	111 % of Cmp 1a and 99 % of Cmp 1a and 92 % of Cmp 1a and 73 % of Cmp 1a and 91 % of Cmp 1a	133 % of Cmp 1a and 107 % of Cmp 1a and 62 % of Cmp 1a and 54 % of Cmp 1a and 75 % of Cmp 1a	82 % of Cmp 1a and 74 % of Cmp 1a and 57 % of Cmp 1a and 42 % of Cmp 1a and 56 % of Cmp 1a	39 % of Cmp 1a and 41 % of Cmp 1a and 22 % of Cmp 1a and 13 % of Cmp 1a and 21 % of Cmp 1a	27 % of Cmp 1a and 24 % of Cmp 1a and 4.3 % of Cmp 1a and 2.59 % of Cmp 1a and 7 % of Cmp 1a	12 % of Cmp 1a (2×) and -2.74 % of Cmp 1a and 7 % of Cmp 1a and 4.7 % of Cmp 1a	7 % of Cmp 1a and 3 % of Cmp 1a and -1 % of Cmp 1a and 10 % of Cmp 1a and 2.65 % of Cmp 1a	7 % of Cmp 1a and 1.19 % of Cmp 1a and 6 % of Cmp 1a (2×) and 3 % of Cmp 1a	11 % of Cmp 1a and 1.67 % of Cmp 1a and 3 % of Cmp 1a and 4.53 % of Cmp 1a and 4.33 % of Cmp 1a	4 % of Cmp 1a and 35 % of Cmp 1a and 2.33 % of Cmp 1a
